The test system of data set [1] is brain aromatase (cyp19a1b). Nature of the data set: cyp19a1b gene expression (qPCR) in exposed zebrafish embryos. The format is in vivo, zebrafish (Danio rerio). The conditions noted are these: exposed 48–120 hpf.
Protocol: (§1) Twenty embryos per treatment and replicate were exposed to 3–7 different concentrations of chemical in glass. […] Between 3 and 6 biological replicates were performed per compound and condition in, at least, two independent experiments.
(§2) At 120 hpf, 20 embryos per condition and replicate were pooled and homogenized in TRIreagent and total RNA extracted following the manufacturer’s protocol. Total RNA concentration was estimated by spectrophotometric absorption at 260 nm in a NanoDrop Spectrophotometer ND-1000 (NanoDrop Technologies; Wilmington, DE, USA). One hundred nanograms of RNA were retrotranscribed to cDNA by reverse transcriptase (Superscript III RT-Enzyme, Invitrogen, Carlsbad, CA, USA) and stored at −20 °C. Aliquots 10-times diluted of cDNA were used to quantify the amounts of specific transcripts in a Lightcycler® 480 system (Roche, Basel, Switzerland) by the SYBR GREEN method. Annealing temperature used in amplification reactions was 60 °C in all cases. […] Relative expression levels were quantified using the ΔΔCt method [82] and ef1a as reference gene [83]
In a further data set the test system is thyroid peroxidase (tpo). Put plainly: tpo gene expression (qPCR) in exposed zebrafish embryos. The format is in vivo, zebrafish (Danio rerio). Particulars: Danio rerio, read-out: EC50 tpo.
A further data set has as its system cyp19a1b - fluorescence. Particulars: 0-96 h; ref [3] (supplement list: Brion 2012); cited from earlier work.
In the next data set the test system is vtg1 - mRNA. The conditions noted are these: 6-96 h, cited from earlier work.
In another data set the test system is carp hepatocytes. Also on record: method as in PMID 10478856. The conditions noted are these: concentrations up to 100 µM; cited from earlier work.
A further data set has as its system vitellogenin 1 (vtg1). Nature of the data set: vtg1 gene expression (qPCR) in exposed zebrafish embryos. Background: In qPCR the cycle at which signal appears reflects the starting amount.
A further data set relates to cyp19a1b - vtg1 mRNA. Put plainly: estrogenic markers considered together (cyp19a1b - vtg1 mRNA), zebrafish embryos. The conditions noted are these: Danio rerio, read-out: EC50 (cyp19a1b - vtg1 mRNA), class symbol.

pEC50: −log10 of the molar value.

We go through 1 compound from article PMC6479714, “Multiplex Analysis Platform for Endocrine Disruption Prediction Using Zebrafish” (International Journal of Molecular Sciences, 2019).

Protocol for cyp19a1b - vtg1 mRNA: as §1, §2
Protocol for thyroid peroxidase (tpo): as §1, §2
Protocol for vitellogenin 1 (vtg1): as §1, §2

With `O=S1OCC2C(CO1)C1(Cl)C(Cl)=C(Cl)C2(Cl)C1(Cl)Cl` (centres unmarked) [END, endosulfan], in data set [1], the “effect on expression of cyp19a1b” value is listed as “not affecting expression”. Moreover, the negative logarithm of the EC50 (pEC50) – broadly, the negative decadic logarithm of the EC50, by convention in mol/L – with thyroid peroxidase (tpo) is 7.22; in the data set on vtg1 - mRNA (ref [25] (supplement list: Moon 2016), read-out: EC50 (vtg mRNA)) it was 5.71; in the data set on vitellogenin 1 (vtg1) (Danio rerio, read-out: EC50 vtg1), 6.48; with cyp19a1b - vtg1 mRNA, under 5.40. In addition, the “EC50 (cyp19a1b - fluorescence), class symbol” value in the data set on cyp19a1b - fluorescence was “n.e”. In the data set with vtg1 - mRNA (log of EC50 in μM, ref [25] (supplement list)), the “LogEC50 (vtg mRNA)” value was 0.2923. The “induction of vitellogenesis in carp hepatocytes” value with carp hepatocytes is “not able to induce vitellogenesis”. In the data set on vitellogenin 1 (vtg1) (4 µM, compared to controls, downregulation), the “FI vtg1 at the most effective concentration” value amounted to 0.35. In addition, the “LogEC50 (vtg1 mRNA)” value in the data set with vitellogenin 1 (vtg1) (log of EC50 in μM, 48-120 h, our study) is listed as -0.4815. In the data set on vitellogenin 1 (vtg1) (most effective concentration (4 µM)), the “downregulation of vtg1 expression compared to controls” value was “more than 50%”.
